These results are taken from patent US4269827A, “Process and composition for reducing blood pressure” (The Massachusetts General Hospital, priority 1980, dated 1981).

For assay [1], the target named is T1, renin (Homo sapiens, UniProt P00797).
T1 sequence (P00797 67-406): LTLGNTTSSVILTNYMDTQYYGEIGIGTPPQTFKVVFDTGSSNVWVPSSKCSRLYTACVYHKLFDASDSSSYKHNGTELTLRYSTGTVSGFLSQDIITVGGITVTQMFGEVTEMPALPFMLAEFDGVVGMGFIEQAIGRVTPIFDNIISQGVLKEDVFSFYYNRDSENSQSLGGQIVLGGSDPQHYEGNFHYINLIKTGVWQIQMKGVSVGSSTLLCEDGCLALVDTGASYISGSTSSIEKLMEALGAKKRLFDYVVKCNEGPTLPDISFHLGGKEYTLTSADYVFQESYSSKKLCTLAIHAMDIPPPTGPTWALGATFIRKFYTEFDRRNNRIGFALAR
The assay is described as follows: In vitro inhibition of renin, inhibitor constant (Ki) with tetradecapeptide substrate, angiotensin I radioimmunoassay. It counts as biochemical. Conditions: pH 7.4, read-out: inhibitory constant (Ki).
Method: The peptide being tested is dissolved in 0.01 N HCl and the pH adjusted to pH 7.5 to obtain high concentrations of peptide. The peptide solution is diluted further to appropriate concentrations with 0.1 M Tris HCL-albumin.
First, to determine Km renin (0.006 Goldblatt unit/ml) is incubated for 2 hrs. at 37° with incremental concentrations of Tetradecapeptide substrate varying between 3 and 108 μM in a volume of 160 μl at pH 7.5 in 0.1 M Tris HCl containing 0.5% albumin. The release of angiotensin I is determined by radioimmunoassay, Haber et al., J. Clin. Endocrinol. […] The cross-reaction of the tetradecapeptide with antibody is about 1% and less than 0.5% with the renin inhibitors both before and after exposure to renin.
The inhibitor constant is calculated as previously described, Poulsen et al., Scand. […] No. 132, 1, (1973), from a weighted least-squares fit of a Lineweaver-Burk plot. Each point is given a weight proportional to the initial velocity, Dowd et al, J. Biol. Chem. 240, 863, (1965).
The tetradecapeptide is a renin substrate releasing angiotensin I after cleavage between leucyl residues at positions 10 and 11.
Specific antibody is used to measure angiotensin I release from the decapeptide.
The rate of cleavage between renin and decapeptide will therefore be given by Dixon and Webb, Enzymes, New York, N.Y., Academic (1964), [formula] […]

The target of assay [2] is T2, plasma renin activity (Homo sapiens, UniProt P00797).
T2 construct: added to pooled human plasma having a plasma renin activity; from tissue; host or cells: pooled human plasma
T2 sequence (P00797 67-406): T1 sequence (P00797 67-406)
Kind of assay: In vitro inhibition of plasma renin activity in pooled human plasma. It counts as biochemical. Conditions: peptide in saline (1 mM) added to pooled human plasma; read-out: 50% inhibition of plasma renin activity (converted). The procedure:
The mixture is incubated for 45 min at 37° and then cooled to 0°. Complementary amounts of plasma are then added as 20 μl of a plasma dilution in 0.1 M Tris HCl (pH 7.5) containing 0.5% albumin to give the same amount of plasma protein in all tubes. Tracer and antibody (1000 μl) are then added following the radioimmunoassay procedure described by Poulsen et al, J. Clin. Endocrinol. Metab. 39, 816, (1974). Data for the standard curve is collected in the same medium kept at 4°. To determine Ki parallel series of experiments are performed in which the 10 μl Tris buffer is replaced with 10 μl of a solution containing between 2-100 μM inhibitor, respectively.
The inhibitory effect of the decapeptide in human plasma was determined as follows: human blood was drawn in ice cold tubes containing EDTA as anticoagulent and the plasma was immediately separated at 4° C. […] Substrate concentration was determined by measuring angiotensin I concentration by radioimmunoassay after incubation of plasma diluted 1:10 in the phosphate albumin buffer (pH 7.4) with 10 µl of human renin solution (0.006 GU/ml) for 1, 2, 3 and 4 hrs in order to convert renin substrate completely to angiotensin I. EDTA, BAL (2,3-dimercapto-1-propanol) and 8-hydroxyquinoline were added as angiotensinase inhibitors, Haber et al, J. Clin. Endocrinol. […]

The target of assay [3] is T1, renin. The conditions noted are these: octapeptides with changed cleavage site; read-out: binding constants; cited from earlier work.

Where “and” joins values, the source holds several entries; their conditions need not be identical. Identical values can stand only once. Like-named read-outs stand apart in the source and are kept apart here. No end group written: not given here.

Take “PHPFHFFVYK [I, Pro-His-Pro-Phe-His-Phe-Phe-Val-Tyr-Lys]”: in assay [1], the Ki was found to be 2 µM. The IC50 in assay [2] is 45 µM and 44.7 µM.
Consider Phe-Phe, for which the Ki in assay [3] is 1 µM.
Take Leu-Tyr: the Ki in assay [3] is 12 µM.
Take Leu-Phe: the Ki in assay [3] is 4 µM.
